# Measured values reported in ChEMBL document CHEMBL1201862, “PubChem BioAssay data set” (2004).
#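 Growth conditions: 96-well plates. Treatment: test compound, 48 hours, 5 concentrations. Analysis: linear interpolation between bracketing concentrations; unreached endpoints set to highest concentration. GI50: concentration for 50% inhibition of growth.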 The source made the active and inactive calls. Cut-off read from the data, not from the text of the source: active = GI50 up to about 1.1 µM and inactive = higher. Non-standard residues stand in square brackets, D forms with d. Residues, ends and D or L forms follow the SMILES beside them. ξ: configuration not given here. *: point of attachment. Cbz = O=C(OCc1ccccc1)*; ξK = NCCCCC(N)C(=O)O
# Assays:
# Assay in all cases: NCI anticancer screen, dose series, 48 h
# RPMI-8226 = test system: RPMI-8226
# HCT-15 = test system: HCT-15
# OVCAR-3 = test system: OVCAR-3
# HCC 2998 = test system: HCC 2998
# K562 = test system: K562
# LOX IMVI = test system: LOX IMVI
# SK-MEL-5 = test system: SK-MEL-5
# A549 = test system: A549
# UACC-257 = test system: UACC-257
# NCI-H23 = test system: NCI-H23
# CAKI-1 = test system: CAKI-1
# SF-539 = test system: SF-539
# RXF 393 = test system: RXF 393
# NCI/ADR-RES = test system: NCI/ADR-RES
# SW-620 = test system: SW-620
# PC-3 = test system: PC-3
# SF-295 = test system: SF-295
# NCI-H522 = test system: NCI-H522
# Hs-578T = test system: Hs-578T
# HL-60 = test system: HL-60
SMILES,GI50 (RPMI-8226),GI50 (HCT-15) [µM],GI50 (OVCAR-3),GI50 (HCC 2998),GI50 (K562),GI50 (LOX IMVI),GI50 (SK-MEL-5),GI50 (A549),GI50 (UACC-257),GI50 (NCI-H23),GI50 (CAKI-1),GI50 (SF-539),GI50 (RXF 393),GI50 (NCI/ADR-RES),GI50 (SW-620),GI50 (PC-3),GI50 (SF-295),GI50 (NCI-H522),GI50 (Hs-578T),GI50 (HL-60)
NCCCCC(NC(=O)OCc1ccccc1)C(=O)NCC(N)=O (stereo not drawn) (Cbz-[ξK]-Gly-NH2),> 100 µM (inactive),> 100,> 100 µM (inactive),> 100 µM (inactive),> 100 µM (inactive),> 100 µM (inactive),> 100 µM (inactive),> 100 µM (inactive),> 100 µM (inactive),> 100 µM (inactive),> 100 µM (inactive),> 100 µM (inactive),> 100 µM (inactive),> 100 µM (inactive),> 100 µM (inactive),> 100 µM (inactive),> 100 µM (inactive),> 100 µM (inactive),> 100 µM (inactive),–
CC(C)=C[C@@H]1O[C@H](O)[C@@H]([C@H]2CC[C@@]3(C)[C@@H]4CC[C@H]5C(C)(C)C(=O)CC[C@@]56C[C@@]46CC[C@]23C)[C@@H]1O,3.14 µM (inactive),16.9,13.2 µM (inactive),18.6 µM (inactive),15.6 µM (inactive),–,17.7 µM (inactive),14.4 µM (inactive),16.7 µM (inactive),16.4 µM (inactive),17.3 µM (inactive),12.4 µM (inactive),12.7 µM (inactive),16.7 µM (inactive),13.1 µM (inactive),13 µM (inactive),16.1 µM (inactive),13.1 µM (inactive),21.2 µM (inactive),14.2 µM (inactive)
COc1ccc2c(c1)/C(=C\c1cccc(/C=C3/C(=O)Nc4ccc(OC)cc43)n1)C(=O)N2,–,1.56,0.676 µM (active),0.933 µM (active),0.412 µM (active),–,0.834 µM (active),3.05 µM (inactive),2.48 µM (inactive),0.925 µM (active),1.99 µM (inactive),1.42 µM (inactive),0.942 µM (active),8.85 µM (inactive),0.982 µM (active),1.32 µM (inactive),2.47 µM (inactive),0.861 µM (active),4.35 µM (inactive),0.506 µM (active)
CC(=O)c1ccc(/N=N/N2CCCC2)cc1,–,> 100,> 100 µM (inactive),> 100 µM (inactive),> 100 µM (inactive),> 100 µM (inactive),> 100 µM (inactive),–,> 100 µM (inactive),> 100 µM (inactive),> 100 µM (inactive),> 100 µM (inactive),> 100 µM (inactive),> 100 µM (inactive),> 100 µM (inactive),> 100 µM (inactive),> 100 µM (inactive),> 100 µM (inactive),> 100 µM (inactive),29.5 µM (inactive)
OCCCCCCCCCCCOc1ccc(C2OCC3(CC=CCC3)CO2)cc1 (stereo not drawn),> 100 µM (inactive),15.2,19.1 µM (inactive),17.9 µM (inactive),–,11.7 µM (inactive),16.4 µM (inactive),17.1 µM (inactive),16.8 µM (inactive),16.4 µM (inactive),17.4 µM (inactive),19.1 µM (inactive),–,14.7 µM (inactive),16 µM (inactive),4.07 µM (inactive),17.6 µM (inactive),5.08 µM (inactive),7.87 µM (inactive),7.29 µM (inactive)
CO/N=C(\C(=O)Nc1cncs1)c1csc(N)n1,6.27 µM (inactive),> 10,> 10 µM (inactive),> 10 µM (inactive),> 10 µM (inactive),> 10 µM (inactive),> 10 µM (inactive),> 10 µM (inactive),> 10 µM (inactive),> 10 µM (inactive),> 10 µM (inactive),> 10 µM (inactive),–,> 10 µM (inactive),> 10 µM (inactive),> 10 µM (inactive),> 10 µM (inactive),> 10 µM (inactive),> 10 µM (inactive),–
CC1(C)C2CCC(CN)(C2)C1N (stereo not drawn),> 100 µM (inactive),> 100,> 100 µM (inactive),9.42 µM (inactive),> 100 µM (inactive),> 100 µM (inactive),> 100 µM (inactive),> 100 µM (inactive),14.8 µM (inactive),> 100 µM (inactive),> 100 µM (inactive),> 100 µM (inactive),> 100 µM (inactive),> 100 µM (inactive),> 100 µM (inactive),> 100 µM (inactive),> 100 µM (inactive),–,> 100 µM (inactive),> 100 µM (inactive)
O=C1OCC2=Nc3cccc4cccc(c34)N12,–,> 100,> 100 µM (inactive),> 100 µM (inactive),> 100 µM (inactive),> 100 µM (inactive),> 100 µM (inactive),> 100 µM (inactive),> 100 µM (inactive),> 100 µM (inactive),> 100 µM (inactive),> 100 µM (inactive),> 100 µM (inactive),> 100 µM (inactive),> 100 µM (inactive),> 100 µM (inactive),> 100 µM (inactive),88.9 µM (inactive),> 100 µM (inactive),> 100 µM (inactive)
